According to patent US20220184000A1, “USE OF CANNABIDIOL IN THE TREATMENT OF DRAVET SYNDROME” (priority 2019, published 2022):

Columns and labels:
Type in all cases: in vivo
Settings in all cases: CBD 100 mg/kg s.c. twice daily
[1] = system: Scn1a^+/− mice; assay: Static beam test (motor function), Study II
Experimental: (§1) Here, Scn1a^+/− were randomly divided into two groups and subcutaneously injected with either CBD (100 mg/kg twice daily; n=12) or its vehicle (ethanol:Kolliphor®:0.9% saline=2:1:17; n=29) from P8 onwards until P52 or death (whichever was earlier).
The static beam task was further employed to analyse balance and coordination (Sedy, Urdzikova, Jendelova, & Sykova, 2008), where the animals were required to walk along a cylindrical elevated beam (100 cm long, 0.9 cm diameter and 50 cm height from floor) and enter a dark enclosure at the beam end. The mice were habituated to the task for three consecutive days before the test day. […] The test was video monitored (Sony DCR-SX21E) and blinded offline analysis was conducted (Observer XT 12, Noldus, The Netherlands) to evaluate the average number of foot slips made from two consecutive trials.
(§2) In Study II, the data were analysed in GraphPad Prism 6 software. […] Data obtained from rotarod, gait, social interaction (active interaction), EPM, sucrose preference, RAM (RME) tests were normally distributed and the differences between the three groups were analysed by one-way ANOVA. […] Parametric data are presented in scattered dot plot in the figures and are expressed as mean±SEM. Non-parametric data are presented in box plot in the figures and are expressed as median, min to max, and interquartile range (IQR). […]

[2] = system: Scn1a^+/− mice; assay: Elevated plus maze (EPM) test, anxiety-like behaviour, Study II
Experimental: as §1
The elevated plus maze (EPM) test was performed to assess the level of anxiety in animals (M. Chen et al., 2017). The wooden test apparatus consists of two closed arms (50×10×40 cm) and two open arms (50×10 cm) connected via a central platform (10×10 cm) and raised at a height of 50 cm above the floor. Each animal was placed on the central platform facing towards an open arm. Activity was video recorded (Swann SRDVR-16440H, UK) for 5 minutes. The video files were blinded and coded offline at the end of all experiments using Observer XT 12 (Noldus, Netherlands). Time spent on open arms was inversely related to the level of anxiety.
as §2

[3] = system: Scn1a^+/− mice; assay: Eight-arm radial arm maze (RAM) test, cognition, Study II
Experimental: as §1
A radial arm maze (RAM) consisting of eight arms (each arm 60×10 cm; raised at 50 cm above the floor) was used to assess the reference memory (RM) and working memory (WM) of the animals. On four consecutive days, animals were given two 10-minute sessions of habituation to the test apparatus and rules of the test, separated by a 90 min interval. During the first two days of habituation, food rewards (¼ Cheerios®, Nestle) were randomly scattered on the floor of the apparatus covering all arms and food-troughs at the end of each arm. On the 3rd and 4th habituation day, food rewards were placed only in food troughs of four randomly selected arms (fixed for each animal during the habituation and test day). Food was withdrawn 4-6 hours before the trial (both during habituation and test days) to motivate the animals to locate the rewards and thus perform the task. On the test day two trials of 10 min were conducted at 90 min interval and the activity of the animals were video recorded for offline blinded coding after the end of experiment. Entry to a non-baited arm was considered as a reference memory error (RME), whereas re-entry to a previously baited arm from which the food was already taken is considered as a working memory error (WME). The mean WME or RME were calculated from the two test trials.
In Study II, the data were analysed in GraphPad Prism 6 software. Survival curves of Scn1a^+/− vehicle-treated and Scn1a^+/− CBD-treated group were compared using a Mantel-Cox test. The percentage of animals from the Scn1a^+/− vehicle-treated and Scn1a^+/− CBD-treated groups that survived until the end of the study (P52) were compared by Fisher's exact test. Further, data obtained from the comorbidity assessment were checked for normality by D'Agostino & Pearson omnibus normality test. Data obtained from rotarod, gait, social interaction (active interaction), EPM, sucrose preference, RAM (RME) tests were normally distributed and the differences between the three groups were analysed by one-way ANOVA. If a significant difference was found then Holm-Sidak post-hoc test was conducted among the groups. […] Upon observing a significant difference, the Dunn's post-hoc test was employed to compare the groups. Multiple comparisons were corrected in all cases. Parametric data are presented in scattered dot plot in the figures and are expressed as mean±SEM. Non-parametric data are presented in box plot in the figures and are expressed as median, min to max, and interquartile range (IQR). […]

C=C(C)[C@@H]1CCC(C)=C[C@H]1c1c(O)cc(CCCCC)cc1O [CBD, cannabidiol]
number of foot slips, Scn1a^+/− CBD-treated versus Scn1a^+/− vehicle-treated ([1]; p=0.23, FIG. 3B): no significant difference | number of foot slips, Scn1a^+/− CBD-treated versus WT vehicle-treated ([1]; p=0.48): no significant difference | time spent on open arms (EPM), Scn1a^+/− CBD-treated versus WT vehicle-treated ([2]; p=0.73): not different | time spent on open arms (EPM), Scn1a^+/− vehicle-treated compared to Scn1a^+/− CBD-treated ([2]; statement describes vehicle group relative to CBD group (n=10), p=0.02, FIG. 4C): significantly less time on the open arms | reference memory errors (RME), Scn1a^+/− CBD-treated versus WT vehicle-treated ([3]; p=0.65): No difference | working memory errors (WME), Scn1a^+/− CBD-treated versus WT vehicle-treated ([3]; p>0.9999): not differed | reference memory errors (RME), Scn1a^+/− vehicle-treated compared to Scn1a^+/− CBD-treated ([3]; statement describes vehicle group relative to CBD group (n=10), p<0.0001, FIG. 4E): significantly more RME | working memory errors (WME), Scn1a^+/− vehicle-treated compared to Scn1a^+/− CBD-treated ([3]; statement describes vehicle group relative to CBD group, p=0.001, FIG. 4F): significantly more WME
